Reference: ChEMBL document CHEMBL2417488, “Inhibitory effects of p-dodecylaminophenol on the invasiveness of human fibrosarcoma cell line HT1080” (Bioorg Med Chem, 2013)
Active and inactive are the calls of the source. The calls are words filed in the database; no cut-off is given here.

Assays:
[1] = tested on: HT-1080; assay: Antiinvasive activity in human HT1080 cells at 30 uM; format: functional
[2] = tested on: HT-1080; assay: Reduction of MMP9 mRNA level in human HT1080 cells at 1 uM after 24 hrs by RT-PCR analysis relative to control; format: functional
[3] = tested on: HT-1080; assay: (§1) Toxicity in human HT1080 cells assessed as reduction of cell growth at 1 uM after 24 hrs; format: cell-based; conditions: ht-1080, 24 h, 1 µM
[4] = target: 72 kDa type IV collagenase (Homo sapiens) (UniProt P08253); assay: Inhibition of MMP2 activity in human HT1080 cells at 1 uM after 24 hrs; format: cell-based; conditions: HT-1080
Chain of 72 kDa type IV collagenase (Homo sapiens) (P08253 110-660 limits assumed): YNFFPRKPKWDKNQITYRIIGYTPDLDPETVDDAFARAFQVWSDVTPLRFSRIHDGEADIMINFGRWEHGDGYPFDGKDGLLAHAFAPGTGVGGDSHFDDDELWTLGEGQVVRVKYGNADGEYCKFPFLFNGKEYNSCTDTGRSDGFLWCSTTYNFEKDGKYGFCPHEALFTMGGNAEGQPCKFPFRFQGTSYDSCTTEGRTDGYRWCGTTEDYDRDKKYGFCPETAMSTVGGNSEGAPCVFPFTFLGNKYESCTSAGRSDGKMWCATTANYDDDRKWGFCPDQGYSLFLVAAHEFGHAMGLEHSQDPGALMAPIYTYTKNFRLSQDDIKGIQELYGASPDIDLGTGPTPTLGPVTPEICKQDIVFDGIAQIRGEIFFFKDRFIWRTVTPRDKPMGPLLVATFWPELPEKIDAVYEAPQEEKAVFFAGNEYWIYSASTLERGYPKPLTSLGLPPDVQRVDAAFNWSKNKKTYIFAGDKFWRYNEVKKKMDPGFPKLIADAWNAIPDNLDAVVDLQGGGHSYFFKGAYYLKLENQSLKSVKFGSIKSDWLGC

[5] = tested on: HT-1080; assay: Reduction of MMP2 mRNA level in human HT1080 cells at 1 uM after 24 hrs by RT-PCR analysis relative to control; format: functional, cell-based
[6] = tested on: HT-1080; assay: Induction of RECK mRNA expression in human HT1080 cells at 1 uM after 24 hrs by RT-PCR analysis relative to control; format: functional
[7] = target: Matrix metalloproteinase-9 (Homo sapiens) (UniProt P14780); assay: Inhibition of MMP9 activity in human HT1080 cells at 1 uM after 24 hrs; format: cell-based; conditions: HT-1080
Chain of Matrix metalloproteinase-9 (Homo sapiens) (P14780 whole entry): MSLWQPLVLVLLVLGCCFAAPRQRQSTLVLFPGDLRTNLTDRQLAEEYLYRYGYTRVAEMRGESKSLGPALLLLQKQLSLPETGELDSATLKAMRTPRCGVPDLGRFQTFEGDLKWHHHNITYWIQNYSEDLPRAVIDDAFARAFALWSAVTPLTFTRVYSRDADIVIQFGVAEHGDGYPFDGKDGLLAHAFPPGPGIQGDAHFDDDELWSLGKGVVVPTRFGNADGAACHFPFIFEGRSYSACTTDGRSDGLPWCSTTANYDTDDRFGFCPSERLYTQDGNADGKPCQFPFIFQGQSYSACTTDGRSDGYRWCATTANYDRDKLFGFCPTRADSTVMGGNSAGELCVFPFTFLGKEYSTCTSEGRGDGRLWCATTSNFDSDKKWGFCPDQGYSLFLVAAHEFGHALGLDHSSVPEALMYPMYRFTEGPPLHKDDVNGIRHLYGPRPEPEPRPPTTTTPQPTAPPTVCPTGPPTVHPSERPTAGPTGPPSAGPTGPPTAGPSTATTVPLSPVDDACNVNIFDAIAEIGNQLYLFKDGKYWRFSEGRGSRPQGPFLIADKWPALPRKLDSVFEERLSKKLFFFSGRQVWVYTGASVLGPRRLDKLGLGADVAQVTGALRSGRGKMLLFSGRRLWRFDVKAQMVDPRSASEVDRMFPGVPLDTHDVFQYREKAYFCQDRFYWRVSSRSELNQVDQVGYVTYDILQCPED

[8] = tested on: HT-1080; assay: Antiinvasive activity in human HT1080 cells assessed as reduction of cell number at 1 uM after 22 hrs by matrigel invasion assay; format: functional
[9] = tested on: HT-1080; assay: Cytotoxicity against human HT1080 cells; format: functional, cell-based
[10] = tested on: HT-1080; assay: Antiinvasive activity in human HT1080 cells at 50 uM; format: functional
[11] = tested on: HT-1080; assay: Induction of apoptosis in human HT1080 cells assessed as increase in caspase-3 activity at 10 uM relative to control; format: functional
[12] = tested on: HT-1080; assay: Cell cycle arrest in human HT1080 cells assessed as accumulation at G2/M phase at 10 uM after 72 hrs using propidium iodide staining by FACS analysis relative to control; format: functional
[13] = tested on: HT-1080; assay: Cell cycle arrest in human HT1080 cells assessed as accumulation at G2/M phase at 1 uM after 72 hrs using propidium iodide staining by FACS analysis relative to control; format: functional
[14] = tested on: HT-1080; assay: Reduction of proMMP9 level in human HT1080 cells after 24 to 72 hrs by gelatin zymography analysis; format: functional, cell-based
[15] = tested on: HT-1080; assay: Reduction of MMP2 level in human HT1080 cells after 24 to 72 hrs by gelatin zymography analysis; format: functional, cell-based
[16] = tested on: HT-1080; assay: Cell cycle arrest in human HT1080 cells assessed as accumulation at S phase at 10 uM after 72 hrs using propidium iodide staining by FACS analysis relative to control; format: functional
[17] = tested on: HT-1080; assay: Induction of RECK protein expression in human HT1080 cells at 1 uM after 24 hrs by electrophoresis analysis relative to control; format: functional
[18] = tested on: HT-1080; assay: Cell cycle arrest in human HT1080 cells assessed as accumulation at G0/G1 phase at 1 uM after 72 hrs using propidium iodide staining by FACS analysis relative to control; format: functional
[19] = tested on: HT-1080; assay: Cell cycle arrest in human HT1080 cells assessed as accumulation at G0/G1 phase at 4 uM after 72 hrs using propidium iodide staining by FACS analysis relative to control; format: functional
[20] = as §1; format: cell-based, HT-1080; conditions: HT1080 cells, read-out: Activity
[21] = tested on: HT-1080; assay: Cell cycle arrest in human HT1080 cells assessed as accumulation at G0/G1 phase at 10 uM after 72 hrs using propidium iodide staining by FACS analysis relative to control; format: functional
[22] = tested on: HT-1080; assay: Induction of RECK protein expression in human HT1080 cells at 4 uM after 24 hrs by electrophoresis analysis relative to control; format: functional
[23] = tested on: HT-1080; assay: Cell cycle arrest in human HT1080 cells assessed as accumulation at G2/M phase at 4 uM after 72 hrs using propidium iodide staining by FACS analysis relative to control; format: functional
[24] = tested on: HT-1080; assay: Cell cycle arrest in human HT1080 cells assessed as accumulation at S phase at 1 uM after 72 hrs using propidium iodide staining by FACS analysis relative to control; format: functional
[25] = tested on: HT-1080; assay: Cell cycle arrest in human HT1080 cells assessed as accumulation at S phase at 4 uM after 72 hrs using propidium iodide staining by FACS analysis relative to control; format: functional
[26] = tested on: HT-1080; assay: Cell cycle arrest in human HT1080 cells assessed as accumulation at S phase after 72 hrs using propidium iodide staining by FACS analysis; format: functional, cell-based
[27] = tested on: HT-1080; assay: Reduction of proMMP2 level in human HT1080 cells after 24 to 72 hrs by gelatin zymography analysis; format: functional, cell-based
[28] = tested on: HT-1080; assay: Induction of apoptosis in human HT1080 cells assessed as increase in caspase-3 activity at 4 uM relative to control; format: functional
[29] = tested on: HT-1080; assay: Cytotoxicity against human HT1080 cells assessed as growth inhibition after 72 hrs by trypan blue dye exclusion assay; format: functional, cell-based; conditions: HT-1080, 72 h
[30] = tested on: HT-1080; assay: Cytotoxicity against human HT1080 cells assessed as growth inhibition at 4 to 10 uM after 72 hrs by trypan blue dye exclusion assay relative to control; format: functional
[31] = Cytotoxicity against human HuCCT1 cells; format: functional, cell-based; conditions: HuCCT-1
[32] = tested on: HT-1080; assay: Induction of RECK protein expression in human HT1080 cells after 24 hrs by electrophoresis analysis relative to control; format: functional, cell-based
[33] = tested on: HT-1080; assay: Reduction of MMP9 level in human HT1080 cells after 24 to 72 hrs by gelatin zymography analysis; format: functional, cell-based
[34] = tested on: HT-1080; assay: Induction of apoptosis in human HT1080 cells assessed as increase in caspase-3 activity at 1 uM relative to control; format: functional, cell-based

C[C@@H](N)c1ccc(C(=O)Nc2ccncc2)cc1.Cl
Activity [1]: 50%

CC1=C(/C=C/C(C)=C/C=C/C(C)=C/C(=O)O)C(C)(C)CCC1 [TRETINOIN]
Activity [2]: inactive
Activity [3]: Non-toxic
inhibition [4]: inactive
Activity [5]: inactive
Activity [6]: inactive
inhibition [7]: inactive
Activity [8]: inactive

O=C(CCCCCCSc1ccc2ccccc2c1)NO
IC50 [9]: 3000 nM

O=S(=O)(c1cccc2c(O)nccc12)N1CCCNCC1 [HYDROXYFASUDIL]
Activity [10]: 50%

COC(=O)[C@H](CCSC)NC(=O)c1ccc(CNCc2c[nH]cn2)cc1-c1ccccc1C
IC50 [9]: > 50000 nM

COc1cc(C2Oc3cc([C@H]4Oc5cc(O)cc(O)c5C(=O)[C@@H]4O)ccc3OC2CO)ccc1O (some centres undefined) [SILIBININ]
IC50 [9]: 400000 nM

O=S(=O)(c1cccc2cnccc12)N1CCCNCC1 [FASUDIL]
Activity [10]: 26%

CCCCCCCCCCCCNc1ccc(O)cc1
fold change (FC) [11]: 4.8
Activity [12]: 30.3%
Activity [2]: 60%
Activity [13]: 28.2%
Activity [14]: Dose-dependent effect
IC50 [14]: 900 nM
Activity [15]: Dose-dependent effect
IC50 [15]: 2400 nM
Activity [16]: 19.1%
Activity [17]: 140%
Activity [18]: 63.1%
Activity [19]: 58.5%
inhibition at 24 h, 1 µM [20]: 8%
Activity [21]: 50.6%
Activity [22]: 175%
Activity [23]: 30.4%
Activity [24]: 8.7%
Activity [25]: 11%
inhibition [4]: inactive
Activity [26]: Dose-dependent effect
Activity [27]: Dose-dependent effect
IC50 [27]: > 10000 nM
fold change (FC) [28]: 3.2
IC50 [29]: 1000 nM
growth inhibition (GI) [30]: 77%
IC50 [31]: 2000 nM
Activity [5]: inactive
Activity [32]: Dose-dependent effect
Activity [33]: Dose-dependent effect
IC50 [33]: 700 nM
Activity [6]: 162%
inhibition [7]: 50%
Activity [34]: inactive
Activity [8]: 80%

CC1=C(/C=C/C(C)=C/C=C/C(C)=C/C(=O)Nc2ccc(O)cc2)C(C)(C)CCC1 [FENRETINIDE]
Activity [2]: inactive
inhibition at 24 h, 1 µM [20]: 4%
inhibition [4]: inactive
Activity [5]: inactive
Activity [6]: inactive
inhibition [7]: inactive
Activity [8]: 20%
